Data taken from patent US20070265223A1, “COMPOSITIONS AND METHODS OF ENHANCING SURVIVABILITY AND REDUCING INJURY OF CELLS, TISSUES, ORGANS, AND ORGANISMS UNDER HYPOXIC OR ISCHEMIC CONDITIONS” (IKARIA, INC., priority 2006, published 2007).
Read-outs that look alike come from different tables or passages of the source.

Tests used:
[1] = tested on: mice subjected to lethal hypoxia; experiment: Protection of mice from lethal hypoxia using 5′-AMP; format: in vivo, mouse (C57BI/6); details: for survival of exposure to hypoxia: 4% oxygen for 60 min; for time to full recovery from lowest temperature: after return to ambient air
Protocol: The ability of 5′-AMP to protect mice from lethal hypoxia was determined by comparing the effects of hypoxia on mice treated with 5′-AMP to the effects of hypoxia on untreated mice. Male C57BI/6 mice, 5-6 weeks old, with implanted jugular vein catheter (Taconic) were implanted dorsally with a subcutaneous RFID temperature sensor (IPTT-300, Bio Medic Data Systems, Inc.) and allowed to recover for at least 24 hours. Adenosine-5′-monophosphate (AMP sodium salt, Sigma) was dissolved in water, the osmolarity was adjusted with sodium chloride to 300 mOsm, the pH was adjusted with NaOH to 6.3, and the solution was filtered through a 0.2 um filter. The final AMP concentration was 40 mM. Mice were placed into a tall glass-bottom jar with opaque walls and infused via the jugular vein at a rate of 0.8 ul/min for 59.5 min followed by 1.6 ul/min for 12.8 min (total AMP dose=145 umol/kg) with a syringe pump (Harvard Apparatus), until their subcutaneous temperature had decreased to about 33° C. The infusion was stopped, and the mice were exposed for 60 min to an atmosphere of 4% oxygen constructed by mixing air and nitrogen using mass flow controllers (Sierra Instruments). During the infusion and exposure to hypoxia, the animals' subcutaneous temperature was read every 3-5 min and their vital signs were monitored. At the end if the hypoxic period, the animals were removed to ambient air. Temperature measurements were continued until the animals' temperature had returned to the normal range (FIGS. 1A and 1B). A control mouse was exposed to hypoxia, and its time of death was recorded.
The same procedure described above was repeated under conditions wherein the mouse treated with 5′AMP received a constant infusion of 40 mM AMP at 1.6 ul/min for 26.5 min (total AMP dose of 69 umol/kg) until its subcutaneous temperature had reached 33 C. In this case, the AMP-infused mouse (MJVC83) survived exposure to hypoxia for 60 min and recovered fully from the lowest temperature of 24° C. within 1 hour. The control mouse (MJVC84) died after 8.5 min of hypoxia with a final temperature of 32.7° C. (FIGS. 2A and 2B).

[2] = tested on: rats subjected to lethal hypoxia; experiment: Protection of rats from lethal hypoxia using 5′-AMP; format: in vivo, rat (Sprague Dawley); details: rat RJVC35; 40 mM 5′AMP bolus 258 ul then 31.7 ul/min for 66.4 min, total 270 uM/kg; saline control 8.6 min
[3] = treatment of animals; Zhang et al., Nature 2006; cited from earlier work
[4] = tested on: mice subjected to lethal hypoxia; experiment: Protection of mice from lethal hypoxia using adenosine; format: in vivo, mouse (C57BI/6); details: two mice
Protocol: The ability of adenosine to protect mice from lethal hypoxia was determined by comparing the effects of hypoxia on mice treated with adenosine to the effects of hypoxia on untreated mice. Male C57BI/6 mice, 5-8 weeks old, with implanted jugular vein catheter (Taconic) were implanted dorsally with a subcutaneous RFID temperature sensor (PTT-300, Bio Medic Data Systems, Inc.) and allowed to recover for at least 24 hours after implantation. Mice were injected with adenosine (19 mM, 3.2 μl/min total dose approximately 27 mg/kg) and temperature was monitored via the temperature sensor until subcutaneous body temperature had decreased to about 33° C. The infusion was stopped, and these mice, as well as control mice injected with sodium chloride) were exposed for 60 min to an atmosphere of 4% oxygen constructed by mixing air and nitrogen using mass flow controllers (Sierra Instruments). During the infusion and exposure to hypoxia, the animals' subcutaneous temperature was monitored every 3-5 min and their vital signs were monitored. In parallel, a control mouse was injected with vehicle (sodium chloride; NaCI; 137 mM, 3.2 μl/min, total dose of NaCl administered was approximately 41 mg/kg) and put into a hypoxic atmosphere (4% O2) at the same time as the mouse injected with adenosine, and its behavior and body temperature monitored. Following 60 min in hypoxic conditions, the mice (MJVC104 and MJVC 108) treated with adenosine were transferred into room air, and recovery of the mice was recorded by observing behavior and monitoring body temperature. […] The control mice (MJVC105 and MJVC107) died after approximately six minutes in the hypoxic atmosphere (4% O2; FIGS. 4B and 5B).

[5] = cited from earlier work
[6] = adenosine approximately 27 mg/kg, after 60 min 4% O2

With `Nc1ncnc2c1ncn2[C@@H]1O[C@H](COP(=O)(O)O)[C@@H](O)[C@H]1O` [5′-AMP, Adenosine-5′-monophosphate] as the compound, how does the “survival of exposure to hypoxia” value ([1]; mouse MJVC80, 40 mM AMP jugular vein infusion 0.8 ul/min 59.5 min then 1.6 ul/min 12.8 min, total 145 umol/kg) read?
The value was “survived”.

And the “time to full recovery from lowest temperature” value ([1]; mouse MJVC80, total AMP dose 145 umol/kg)?
Its value is ≤ 1 h.

What about the “survival of exposure to hypoxia” value ([1]; mouse MJVC83, constant infusion 40 mM AMP 1.6 ul/min 26.5 min, total 69 umol/kg) of the same compound?
The value was “survived”.

What about the “time to full recovery from lowest temperature” value ([1]; mouse MJVC83, total AMP dose 69 umol/kg) of the same compound?
Its value is ≤ 1 h.

And the “time of survival in 3.5% oxygen” value [2]?
Its value is 38.2 min.

What about the “induction of torpor (depressed body temperature, mClps expression)” value [3] of the same compound?
The value was “induced torpor”.

With `Nc1ncnc2c1ncn2[C@@H]1O[C@H](CO)[C@@H](O)[C@H]1O` [adenosine] as the compound, how does the “survival of hypoxic atmosphere” value ([4]; adenosine 19 mM, 3.2 μl/min, total approximately 27 mg/kg, 4% O2 for 60 minutes) read?
The value was “survived”.

And the “behavioral abnormalities the following day” value [4, 6]?
The value was “No behavioral abnormalities”.

What about the “recovery after return to room air” value [4, 6] of the same compound?
The value was “recovered completely”.

With `[C-]#[O+]` [carbon monoxide] as the compound, how does the symptoms on exposure ([5]; 50 ppm) read?
Its symptoms on exposure is “no symptoms”.

And the symptoms on exposure ([5]; 200 ppm, within two-three hours)?
The symptoms on exposure was “slight headache”.

And the symptoms on exposure ([5]; 400 ppm, within one to two hours)?
Its symptoms on exposure is “frontal headache”.

And the symptoms on exposure ([5]; 800 ppm, within 45 minutes)?
Its symptoms on exposure is “dizziness, nausea, and/or convulsions”.

And the lethality on exposure ([5]; around 1000 ppm, exposure for more than around 1-2 minutes, an organism)?
The lethality on exposure was “expire”.
